The subject of this experiment is rat model of chronic gastric ulcer. In words: Rat model of chronic gastric ulcer (anhydrous ethanol followed by aspirin). In kind it is in vivo. To be noted: omeprazole 2.6 mg/kg twice daily for 3 days. On the procedure:
The function of the small peptides obtained in Embodiment 2 was validated in the present embodiment by using a rat model of chronic gastric ulcer.
Control group (model group): A rat model of chronic gastric ulcer model was constructed by intragastric administration of anhydrous ethanol (1 mL/200 g), followed by intragastric administration of 200 mg/kg aspirin 2 h later. The rats were administered with aspirin once daily for 4 days. At day 5, the rats were administered with an equal volume of saline.
Blank group: The rats were administered with an equal volume of saline.
Drug treatment groups: A rat model of chronic gastric ulcer was constructed as above-mentioned. At day 5, the rats were respectively administered with the rice polypeptide mixture (50 mg/kg), small peptide P1 (0.5 mg/kg), or small peptide P2 (0.5 mg/kg) twice daily for 3 days. On day 4, the rats were sacrificed and their gastric necropsy was performed.
Positive control group (omeprazole 2.6 mg/kg): A rat model of chronic gastric ulcer was constructed as above. At day 5, the rats were administered with omeprazole (2.6 mg/kg) twice daily for 3 days. On day 4, The rats were sacrificed and their gastric necropsy was performed.
Each group consisted of 10 rats. After 24 h of modeling, the rats were sacrificed to extract the gastric tissue, for measuring gastric pH, and observing changes in ulcer area via gastric tissue dissection. Liver and kidney tissues were collected for pathological section observation to assess drug safety.

Data on one compound can be found in patent US20260337225A1, “SMALL PEPTIDE AND USE THEREOF IN MUCOSAL REPAIR” (FORREST BIO-PHARM (SHENZHEN) CO., LTD., priority 2022, published 2026).

SMILES strings stand for the structures.

Consider `COc1ccc2[nH]c([S+]([O-])Cc3ncc(C)c(OC)c3C)nc2c1` (centres unmarked) [omeprazole, reference compound], for which the Ulcer index (10 rats, ratio of ulcer area to gastric mucosal tissue area, Control group 40.5 ± 5.3) was determined as 7.2 ± 4.1%. For the same compound, the Ulcer inhibition rate (percentage reduction in ulcer area compared to the Control group) came to 82.2%.
